“Also recorded” adds a separate entry of the source.

The text below walks through data of publication PMC3358478 (Chemical Research in Toxicology, 2012).

One data set addresses T1, Human P450 2A6 (Homo sapiens, UniProt P11509).
T1 sequence (P11509 1-494): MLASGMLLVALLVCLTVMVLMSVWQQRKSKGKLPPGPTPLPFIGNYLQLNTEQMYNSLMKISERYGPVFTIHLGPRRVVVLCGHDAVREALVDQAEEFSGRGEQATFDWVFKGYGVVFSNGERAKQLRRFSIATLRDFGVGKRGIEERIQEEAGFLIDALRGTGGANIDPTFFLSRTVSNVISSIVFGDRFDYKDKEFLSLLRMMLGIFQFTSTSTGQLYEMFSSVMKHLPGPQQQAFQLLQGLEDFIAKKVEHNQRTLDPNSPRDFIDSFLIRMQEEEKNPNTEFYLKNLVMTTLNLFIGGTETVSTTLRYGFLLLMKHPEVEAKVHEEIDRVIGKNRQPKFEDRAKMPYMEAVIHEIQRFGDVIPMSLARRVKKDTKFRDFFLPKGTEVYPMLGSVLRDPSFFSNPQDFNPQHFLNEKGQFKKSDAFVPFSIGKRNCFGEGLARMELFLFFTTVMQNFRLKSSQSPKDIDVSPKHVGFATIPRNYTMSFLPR
In words: Coumarin 7-hydroxylation assay, P450 2A6 inhibition.

The target in the next data set is T2, Human P450 1A1 (Homo sapiens, UniProt P04798).
T2 sequence (P04798 1-512): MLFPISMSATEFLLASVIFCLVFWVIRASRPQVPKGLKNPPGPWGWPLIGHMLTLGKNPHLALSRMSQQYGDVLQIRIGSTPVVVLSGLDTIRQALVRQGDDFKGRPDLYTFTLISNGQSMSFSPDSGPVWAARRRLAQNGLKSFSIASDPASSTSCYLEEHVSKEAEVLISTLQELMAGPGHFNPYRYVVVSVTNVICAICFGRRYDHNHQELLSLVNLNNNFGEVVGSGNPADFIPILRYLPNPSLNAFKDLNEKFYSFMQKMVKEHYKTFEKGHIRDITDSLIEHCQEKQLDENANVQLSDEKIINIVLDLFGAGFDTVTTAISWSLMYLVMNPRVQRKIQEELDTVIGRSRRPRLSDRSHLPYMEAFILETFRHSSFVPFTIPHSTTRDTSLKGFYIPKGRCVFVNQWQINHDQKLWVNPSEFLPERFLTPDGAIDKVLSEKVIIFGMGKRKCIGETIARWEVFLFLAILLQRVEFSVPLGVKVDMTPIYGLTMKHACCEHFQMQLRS
In words: Ethoxyresorufin O-deethylation. The class given is biochemical. Conditions: for kinact: read-out: limiting Kinact on P450 1A1.

The target of the next data set is T3, Human P450 1A2 (Homo sapiens, UniProt P05177).
T3 sequence (P05177 1-516): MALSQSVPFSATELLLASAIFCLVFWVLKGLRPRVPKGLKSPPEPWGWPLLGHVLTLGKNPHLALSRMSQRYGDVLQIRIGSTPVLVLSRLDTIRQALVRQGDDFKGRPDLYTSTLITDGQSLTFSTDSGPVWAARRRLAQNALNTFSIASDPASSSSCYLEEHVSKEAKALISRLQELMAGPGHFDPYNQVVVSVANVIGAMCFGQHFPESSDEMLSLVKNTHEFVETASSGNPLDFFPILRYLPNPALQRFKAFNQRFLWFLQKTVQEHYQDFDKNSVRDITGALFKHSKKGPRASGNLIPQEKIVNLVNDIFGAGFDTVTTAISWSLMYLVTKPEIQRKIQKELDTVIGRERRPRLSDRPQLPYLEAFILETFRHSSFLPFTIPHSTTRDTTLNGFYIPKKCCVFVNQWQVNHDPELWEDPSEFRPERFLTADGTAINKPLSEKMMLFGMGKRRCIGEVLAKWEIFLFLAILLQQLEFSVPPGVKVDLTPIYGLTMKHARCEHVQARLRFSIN
In words: Methoxyresorufin O-demethylation. It is filed as biochemical. Conditions: for inhibition behavior toward P450 1A2: concentration- and NADPH-dependence; for difference in the IC50 values, more effective on P450 1A2 than P450 1A1: IC50 1A1 vs 1A2.

A further data set has as its target T4, rat P450 2B1 (Rattus norvegicus, UniProt P00176).
T4 sequence (P00176 1-491): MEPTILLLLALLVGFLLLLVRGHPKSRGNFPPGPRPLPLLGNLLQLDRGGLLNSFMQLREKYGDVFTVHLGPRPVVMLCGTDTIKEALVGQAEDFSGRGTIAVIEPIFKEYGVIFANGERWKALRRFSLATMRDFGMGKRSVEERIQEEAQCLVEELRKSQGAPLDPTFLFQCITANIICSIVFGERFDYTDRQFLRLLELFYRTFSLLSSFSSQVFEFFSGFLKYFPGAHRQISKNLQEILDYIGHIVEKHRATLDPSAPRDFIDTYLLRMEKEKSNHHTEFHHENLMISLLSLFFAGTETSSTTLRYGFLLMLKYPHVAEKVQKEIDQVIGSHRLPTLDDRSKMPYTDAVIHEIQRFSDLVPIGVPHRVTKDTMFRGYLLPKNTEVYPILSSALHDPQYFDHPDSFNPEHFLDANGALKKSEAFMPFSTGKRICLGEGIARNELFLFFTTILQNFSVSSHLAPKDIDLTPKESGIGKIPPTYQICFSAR
In words: Pentoxyresorufin O-depentylation. The class given is biochemical. Conditions: for inhibition behavior toward P450 2B1: time-dependence.

A word on the IC50: it is the midpoint of a concentration-inhibition curve. Low values mean greater potency in that assay, high ones weaker potency in that assay. By Ki is commonly meant a dissociation constant, usually derived from enzyme kinetics or from competition with a known ligand. A low value points to a stronger hold on the target. As usually defined, the kinact is the rate constant of inactivation at saturating inhibitor. As to `C#Cc1cc2oc(=O)ccc2cc1OC` [7E6MOC, 7-Ethynyl-6-methoxycoumarin], the concentration for half-maximal inhibition (IC50) against Human P450 2A6 and on rat P450 2B1 was > 50 µM in each case. Besides, the values for the Ki at Human P450 1A1 and on Human P450 1A2 were 104 µM and 78.9 µM, respectively. The kinact at Human P450 1A1 is 0.00567 s⁻¹.

Take `C#Cc1ccc2ccc(=O)oc2c1` [7EC, 7-Ethynylcoumarin]: the 50% inhibitory concentration (IC50) at Human P450 2A6 and at rat P450 2B1 was > 50 µM in each case. This compound registered a Ki on Human P450 1A2 of 5.83 µM.

With `C#Cc1ccc2c(C)c(-c3ccccc3)c(=O)oc2c1` [7E4M3PC, 7-Ethynyl-4-methyl-3-phenylcoumarin], the IC50 at Human P450 2A6 and at rat P450 2B1 was > 50 µM each time. For the same compound, the Ki on Human P450 1A1 amounted to 5.16 µM; at Human P450 1A2, 0.83 µM. In addition, the inactivation rate constant (kinact) at Human P450 1A1 is 0.00517 s⁻¹.

As to `C#Cc1ccc2c(-c3ccccc3)c(C)c(=O)oc2c1` [7E3M4PC, 7-Ethynyl-3-methyl-4-phenylcoumarin], the IC50 against Human P450 2A6 was > 50 µM. Moreover, at Human P450 1A1, the inhibition constant Ki came out at 3.58 µM and the maximal inactivation rate constant (kinact) was 0.00617 s⁻¹. Moreover, on Human P450 1A2, the “inhibition behavior toward P450 1A2” value was “does not show a time-dependent loss of enzymatic activity; also recorded: sole competitive inhibitor; also recorded: does not show time- and NADPH-dependent inhibition; also recorded: completely competitive”. Moreover, at rat P450 2B1, half-maximal inhibition (IC50) was put at 9.16 µM and the “inhibition behavior toward P450 2B1” value is “sole mechanism-based inhibitor”. The maximal inactivation rate constant (kinact) on rat P450 2B1 (read-out: limiting Kinact on P450 2B1) is 0.00483 s⁻¹.

As to `C#Cc1ccc2cc(-c3ccccc3)c(=O)oc2c1` [7E3PC, 7-Ethynyl-3-phenylcoumarin], the half-inhibitory concentration (IC50) against Human P450 2A6 was > 50 µM. Also, on Human P450 1A1, the affinity corresponds to a Ki of 0.38 µM and the inactivation rate constant (kinact) was 0.00417 s⁻¹. For the same compound, on Human P450 1A1 (IC50 1A2 vs 1A1), the “potency toward P450 1A1 relative to P450 1A2” value was “about five times more potent”. On Human P450 1A2, the affinity, expressed as Ki, was 0.65 µM; the “inhibition behavior toward P450 1A2” value was “mainly results from competitive inhibition and not from mechanism-based inhibition”. Further, the concentration for half-maximal inhibition (IC50) against rat P450 2B1 was > 50 µM.

For `C#Cc1ccc2c(C(F)(F)F)cc(=O)oc2c1` [7E4TFC, 7-Ethynyl-4-(trifluoromethyl)coumarin], the IC50 at Human P450 2A6 was > 50 µM. At Human P450 1A1, affinity was put at a Ki of 16.8 µM and the inactivation rate constant (kinact) is 0.00383 s⁻¹. Besides, on Human P450 1A2, the Ki is 3.15 µM and the “difference in the IC50 values, more effective on P450 1A2 than P450 1A1” value is reported as “around 5 fold”. Also, at rat P450 2B1, the concentration for half-maximal inhibition (IC50) was 15.1 µM and the “inhibition behavior toward P450 2B1” value was “competitive inhibitor”.

Turning to `C#Cc1ccc2c(C)cc(=O)oc2c1` [7E4MC, 7-Ethynyl-4-methylcoumarin], at Human P450 2A6, the half-inhibitory concentration (IC50) was > 50 µM. For the same compound, on Human P450 1A1, the Ki worked out at 38.6 µM and the inactivation rate constant (kinact) is 0.0035 s⁻¹. For the same compound, on Human P450 1A2, affinity was put at a Ki of 2.65 µM and the “difference in the IC50 values, more effective on P450 1A2 than P450 1A1” value is reported as “around 5 fold”. Further, at rat P450 2B1, the IC50 is > 50 µM.

`C#Cc1ccc2c(C)c(C)c(=O)oc2c1C` [7ETMC, 7-Ethynyl-3,4,8-trimethylcoumarin]: the concentration for half-maximal inhibition (IC50) at Human P450 2A6 and on rat P450 2B1 was > 50 µM throughout. For the same compound, the “inhibition activity for P450 2A6” value against Human P450 2A6 (at the dose of 50 μM) was “did not show any inhibition activity”. The Ki at Human P450 1A1 was found to be 0.57 µM; at Human P450 1A2, 0.87 µM. In addition, the kinact on Human P450 1A1 was 0.00567 s⁻¹. At Human P450 1A1 (time-, concentration- and NADPH-dependence), the “inhibition behavior toward P450 1A1” value was “time-dependent inhibition; also recorded: NADPH-dependent manner”. The “inhibition activity for P450 2B1” value against rat P450 2B1 (at the dose of 50 μM) was “did not show any inhibition activity”.
